Entries after “also recorded” stand apart in the source; their conditions may differ.
Tests used:
[1] = system: Arabidopsis thaliana; test: Arabidopsis seedling root architecture screen on vertical agar plates; type: in vivo; conditions: for lateral root initiation (effect of treatment) / primary root growth (effect of treatment): 6 days of treatment, concentrations tested
Source text: An initial dose-responded for Arabidopsis seeding growth across multiple orders of magnitude in concentration is developed, and then examined sub-lethal concentrations in greater detail. Plants are germinated and grown vertically on transparent agar plates until the emergence of the first set of true leaves (6-8 days), transferred to fresh plates with or without the compound of interest, and imaged at 0 and 6 days after transfer. Finally, a semi-automated image analysis method is used to score primary root growth and total lateral root number, common phenotypes in plant developmental biology (Lobet, Pagès, and Draye 2011).
Arabidopsis ecotype Col-0 seeds are obtained from the Arabidopsis Biological Resource Center (ABRC). Seeds are surface sterilized by a brief wash in 70% (v/v) ethanol followed by incubation in 30% (v/v) sodium hypochlorite (commercial bleach) for 15 minutes. Seeds are subsequently rinsed 5 times in sterile water, and sown on ½ Murashige and Skoog (MS) agar. Seeds are stratified (2 days, 4° C. in the dark) before transfer to a growth chamber under a 10 h light:14 h dark (22° C.). Following germination, plants are grown until the appearance of the first set of true leaves (˜6 days) prior to transfer to fresh test or control agar. […] The change in root length is determined from the primary root length at transfer subtracted from the primary root length after 6 days of treatment.
(§1) Rhizobacterial biomass for root inoculation experiments is generated by cultivating individual isolates at 30° C. in LB supplemented with 1% (w/v) dextrose, shaking at 200 RPM. Overnight cultures are diluted to an OD600 of 0.1 in fresh media then grown under the same conditions to an OD600 of 0.7. Pellets are centrifuged (2000 r.c.f.) for 10 min at room temperature, then resuspended in 1/10 volume sterile water. Plants are inoculated by momentarily submerging their roots into cell resuspensions, or in sterile water for mock-inoculated controls. Plants are transferred to fresh ½ MS agar plates immediately post-inoculation and grown as before.
(§2) D-limonene, α-pinene, protocatechuate, p-coumarate, [C2C1im][OAc], or [Ch][Lys] are dissolved in molten ½ MS media where indicated. 1.2 M stock solutions of p-coumarate and 1.5 M stock solutions of protocatechuate are prepared in dimethylsulfoxide (DMSO) and ethanol, respectively, before their addition to growth media.
(§3) Plants are lit from the sides and photographed using a Canon 550D camera; images are saved as JPEG files for further analysis. The contrast is adjusted to maximize root visibility, but any adjustments are applied uniformly. Root growth is quantified using ImageJ (Schneider, Rasband, and Eliceiri 2012) with the SmartRoot plugin using default parameters (Lobet, Pages, and Draye 2011).

[2] = system: A. rhizogenes; test: Microbial growth in liquid culture (A. rhizogenes); type: cell-based; conditions: for microbial growth with the compound as sole carbon source: M9 minimal media
Procedure: (§4) Whether inoculation with rhizobacteria alters the effect of the test compounds on plant growth is next tested. Two microbes, A. rhizogenes and Acinetobacter sp.
Whether either [Ch][Lys] or [C2C1im][OAc] has an effect on A. rhizogenes is tested by growing a liquid culture in minimal media (M9, which contains only salts and nitrogen) supplemented with either 0.1 mM [Ch][Lys], 1 mM [C2C1im][OAc], or 1% w/v dextrose as the sole carbon source is tested.
Choline, for instance, can be used as a precursor to the compatible solute glycine betaine in a process dependent on two genes, betA and betB, both of which are present in the A. rhizogenes genome (Levy et al. 2018). Glycine betaine is additionally known to improve the salt tolerance of both plants and microbes (Riou and Le Rudulier 1990; Hayashi et al. 1997). Therefore, whether [Ch][Lys] improves the salt tolerance of A. rhizogenes by growing the microbe in M9 supplemented with 1% w/v dextrose and either 0.1 mM [Ch][Lys], 400 mM NaCl, or both, is tested.
(§5) Microbial strains are maintained in glycerol stocks stored at −80° C. Media used are Lysogeny broth (LB: 10 g/L tryptone, 5 g/L yeast extract, and 5 g/L NaCl) or M9 minimal media (M9: 6.8 g/L Na2HPO4, 3 g/L KH2PO4, 1 g/L NH4Cl, 0.5 g/L NaCl, 0.12 g/L MgSO4) as indicated. Liquid pre-cultures are inoculated with colonies from LB agar plates and grown overnight at 30° C., shaking at 200 RPM. Precultures are back-diluted to an OD600 0.1 into fresh media and grown until OD600 0.6, and then 2 μL per well is used to inoculate 96 well microtiter plates in a total volume of 100 μL of the media and treatment conditions indicated. Optical density is tracked at a wavelength of 600 nm using a Synergy 4 plate reader (BioTek Instruments) kept at 30° C. and shaking on “high” setting.

[3] = system: Sorghum bicolor; test: Sorghum seedling root growth on vertical agar plates; type: in vivo; conditions: for effect on seedlings transferred to solid media: similar results as Arabidopsis; for mean crown root growth / mean lateral root growth: 5 mM [Ch][Lys], 8 days
Source text: Arabidopsis is useful as a model system because of its fast generation time, ease of handling, and the availability of relevant genetic tools. The effects of these treatments on a second plant species of economic relevance are compared. Sorghum is selected, since it is both evolutionarily distant from Arabidopsis, but also an agronomically important plant for food, forage, and biomass, and is cultivated over 3,300,000 ha in the United States and 40,000,000 ha globally (Langholtz, Stokes B. J., and Eaton 2016).
Sorghum cultivar BTx623 seeds are a kind gift from Dr. Jeff Dahlberg, UCANR. Seeds are surface sterilized by rinsing 5 times in sterile water, briefly washing in 70% (v/v) ethanol+0.01% (v/v) Triton-X 100 and incubating in bleach+0.01% (v/v) Triton-X 100 on a shaker for 20 minutes. They are then rinsed in sterile water a further 3 times, sown on plates, and grown as above (although without stratification).
as §1, §2, §3

[4] = system: Arabidopsis roots; conditions: 0.1 mM
Procedure: FIG. 4G. […] Representative fluorescent microscopy images of Arabidopsis roots following propidium iodide staining. I: Control; II: 0.1 mM [Ch][Lys]; III: inoculation with A. rhizogenes; IV: 0.1 mM [Ch][Lys] and A. rhizogenes. The scale bar=200 μm.
Seedlings are inoculated or chemically treated as previously described. After the treatment period roots are gently washed in sterile water and the cell walls are stained for 1 min in […] propidium iodide (PI, Sigma), then briefly rinsed in sterile water. Cellular morphology is determined using a Zeiss LSM 710 confocal microscope with PI fluorescence emission at 550-680 nm and 488 nm excitation.

[5] = system: Acinetobacter sp. 01; test: Microbial growth in liquid culture (Acinetobacter sp. 01); type: cell-based
Procedure: as §4, §5

[6] = system: mammals, fish, and microbes; conditions: reported (Sun et al. 2014); cited from earlier work
[7] = 0.1 mM [Ch][Lys], inoculated with A. rhizogenes, 6 days
[8] = 0.1 mM [Ch][Lys], uninoculated, 6 days
[9] = 1 mM protocatechuate, inoculated with A. rhizogenes
[10] = 1 mM protocatechuate, uninoculated

In the case of C=C(C)C1CC=C(C)CC1 [D-limonene], the “plants showing complete inhibition of primary root growth” value ([1]; regardless of the concentration tested) is reported as “at least 20%”, the lateral root growth ([1]; uninoculated, 6 days) is reported as “unaffected” and the “changes in root architecture / dose-response” value ([1]; uninoculated, between and within plates) is reported as “inconsistent changes in root architecture; also recorded: no dose-response relationship was obvious”.

For CC1=CCC2CC1C2(C)C (stereo not drawn) [α-pinene], the “lateral root initiation (effect of treatment)” value ([1]; uninoculated) was “dose dependent reduction” and the “primary root growth (effect of treatment)” value ([1]; uninoculated) was “dose dependent reduction”.

In the case of [Cl-].[Na+] [NaCl, reference compound], the “A. rhizogenes growth rate” value ([2]; M9 + 1% w/v dextrose, 400 mM NaCl) is reported as “reduces the A. rhizogenes growth rate”.

With cholinium lysinate [[Ch][Lys]] the “effect on seedlings transferred to solid media” value (from here on “effect on seedlings transferred”) ([3]; 0.1 mM) was “reduced root growth”, the “mean crown root growth” value ([3]; inoculated with A. rhizogenes) was 5.028 cm and the “mean lateral root growth” value ([3]; inoculated with A. rhizogenes) was 1.051 cm. For the same compound, the “mean crown root growth” value ([3]; uninoculated) was 3.267 cm, the “mean lateral root growth” value ([3]; uninoculated) was 0.464 cm and the “branching lateral roots and crown root growth” value ([3]; 5 mM, over 8 days) was “almost completely inhibit”. The “effect on seedlings transferred” value ([3]; 5 mM) was “complete chlorosis and plant death”, the “concentration that reduces the root growth” value ([3]; S. bicolor) was “At least 5 mM” and the “effect on seedlings transferred” value ([1]; 0.1 mM) was “reduced root growth”. The “mean lateral root number (lateral root initiation)” value (from here on “mean lateral root number”) [1, 7] was 4.889, the “mean primary root growth” value [1, 7] was 2.241 cm and the “root growth versus uninoculated, [Ch][Lys]-treated controls” value ([1]; 0.1 mM [Ch][Lys], inoculated with Pool A) was “do not differ significantly”. The “mean primary root growth” value ([1]; 0.1 mM [Ch][Lys], inoculated with Pool B) was 2.072 cm, the “mean lateral root number” value [1, 8] was 7.069 and the “mean primary root growth” value [1, 8] was 0.858 cm. For the same compound, the primary root growth ([1]; 0.1 mM, uninoculated) was “significantly inhibit”, the lateral root initiation ([1]; 0.1 mM, uninoculated, 6 days) was “increase lateral root initiation” and the “effect on seedlings transferred” value ([1]; 5 mM) was “complete chlorosis and plant death”. The “concentration that reduces the root growth” value ([1]; A. thaliana) was “At least 0.1 mM”, the “concentration sufficient to completely inhibit primary root growth” value ([1]; Arabidopsis) was 0.1 mM and the “root growth, effect of inoculation” value ([1]; [Ch][Lys] treatment, inoculated with Acinetobacter sp. 01) was “no significant effect”. For the same compound, the “application rate equivalent to the concentration that inhibits primary root growth” value ([1]; equates to 0.1 mM) was 104 g/ha2, the “estimated appropriate application rate as herbicide” value ([1]; estimate) was 100-500 g/ha and the “primary root growth (effect of treatment)” value ([1]; uninoculated) was “reduce primary root growth at all concentrations tested”. For the same compound, the “root cell morphology phenotype caused by [Ch][Lys]” value ([4]; A. rhizogenes treated roots) was “abolished”, the root cell morphology ([4]; uninoculated) was “irregular expansion of epidermal cells of the root apical meristem (RAM) and stimulates formation of ectopic root hairs” and the “concentration tolerated by the microbe” value ([2]; A. rhizogenes) was 10 mM. For the same compound, the “A. rhizogenes growth rate under NaCl” value ([2]; M9 + 1% w/v dextrose, 400 mM NaCl plus 0.1 mM [Ch][Lys]) was “partially rescued”, the “microbial growth with the compound as sole carbon source” value ([2]; 0.1 mM [Ch][Lys]) was “Neither IL allows microbial growth” and the “concentration tolerated by the microbe” value ([5]; Acinetobacter sp. 01) was 10 mM. The “toxicity to mammals, fish, and microbes” value [6] was “low toxicity”.

For O=C(O)c1ccc(O)c(O)c1 [protocatechuate], the “primary root curvature, median skew to the right from that of untreated plants” value ([1]; 1 mM) was 200, the “mean lateral root number” value [1, 9] was 2.214 and the “mean primary root growth” value [1, 9] was 0.631 cm. For the same compound, the “mean lateral root number” value [1, 10] was 7.989, the “mean primary root growth” value [1, 10] was 2.293 cm and the lateral root initiation ([1]; 1 mM, uninoculated, 6 days) was “increase lateral root initiation”. The lateral root growth ([1]; uninoculated, 6 days) was “enhanced” and the “primary root growth (effect of treatment)” value ([1]; uninoculated) was “reduce primary root growth at all concentrations tested”.

For CCn1cc[n+](C)c1 [[C2C1im][OAc], 1-ethyl-3-methylimidazolium acetate], the “lateral root initiation, effect of inoculation” value ([1]; 1 mM [C2C1im][OAc], inoculated with A. rhizogenes) was “no effect”, the “mean primary root growth” value ([1]; 1 mM [C2C1im][OAc], inoculated with A. rhizogenes, 6 days) was 2.912 cm and the “mean primary root growth” value ([1]; 1 mM [C2C1im][OAc], inoculated with Acinetobacter sp. 01, 6 days) was 4.011 cm. The “mean primary root growth” value ([1]; 1 mM [C2C1im][OAc], uninoculated, 6 days) was 1.904 cm, the root growth ([1]; 1 mM, uninoculated) was “overall reduction in root growth” and the “lateral root initiation (effect of treatment)” value ([1]; uninoculated) was “dose dependent reduction”. The “primary root growth (effect of treatment)” value ([1]; uninoculated) was “dose dependent reduction”, the “effect on growth of the microbe” value ([2]; 1 mM) was “does not alter the growth” and the “microbial growth with the compound as sole carbon source” value ([2]; 1 mM [C2C1im][OAc]) was “Neither IL allows microbial growth”. For the same compound, the “effect on growth of the microbe” value ([5]; 1 mM) was “does not alter the growth”.

For O=C(O)/C=C/c1ccc(O)cc1 [p-coumarate], the “lateral root initiation (effect of treatment)” value ([1]; uninoculated) was “dose dependent reduction” and the “primary root growth (effect of treatment)” value ([1]; uninoculated) was “dose dependent reduction”.

Source: patent US11160277B2, “Use of cholinium lysinate as an herbicide” (priority 2019, dated 2021)
